According to the supplement of paper PMC10627819:

Assays:
B. subtilis 168 [1] = assay: fitness (endpoint OD595 vs no drug) (fraction); higher = more growth
Outline: (§1)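 In 384-well plates at 37 °C, cultures began at OD595 0.01 in 30 µl, with 55 µl used for S. pneumoniae. OD595 readings every 30 min for 14 h were corrected by the first reading. Fitness divides the stationary-phase transition optical density by the robust mean of no-drug control wells. The result is capped at 1.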

S. aureus DSM 20231 [2] = assay: as above
Outline: as §1

B. subtilis 168 [3] = assay: Bliss interaction score (quartile over a dose matrix) (fitness difference); higher = more antagonism (negative = synergy)
Outline: (§2)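 Quartiles summarise the Bliss score over technical, biological and donor/recipient replicates, where the score is observed minus expected fitness under a product model. Expected fitness uses single-drug values inferred from combination data. Fitness is OD595 at entry into stationary phase over the plate's robust no-drug mean, capped at 1.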

S. aureus DSM 20231 [4] = assay: as above
Outline: as §2

S. aureus Newman [5] = assay: as above
Outline: as §2

S. pneumoniae D39V = assay: as above
Outline: as §2

S. aureus Newman [6] = assay: fitness (endpoint OD595 vs no drug) (fraction); higher = more growth; details: main component drawn
Outline: as §1
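Wherever Bliss interaction score (quartile over a dose matrix) is given: first quartile when negative (synergy) and third quartile when positive (antagonism).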

Cn1c2cccc(=O)c-2nc2ccccc21 [Pyocyanin] + COc1cc(Cc2cnc(N)nc2N)cc(OC)c1OC [Trimethoprim]
fitness, one replicate
Details | partner 0.1 µg/mL | partner 0.125 µg/mL | partner 0.2 µg/mL | partner 0.4 µg/mL | partner 1 µg/mL | partner 2 µg/mL
B. subtilis 168 [1], first compound 1.25 µg/mL | 0.744 | 0.7 | 0.672 | 0.502 | 0.354 | 0.3
B. subtilis 168 [1], first compound 2.5 µg/mL | 0.758 | 0.598 | 0.669 | 0.414 | 0.297 | 0.273
B. subtilis 168 [1], first compound 5 µg/mL | 0.501 | 0.563 | 0.429 | 0.242 | 0.191 | 0.211
S. aureus DSM 20231 [2], first compound 1.25 µg/mL | – | 0.659 | – | – | – | –
S. aureus DSM 20231 [2], first compound 2.5 µg/mL | – | 0.738 | – | – | – | –
S. aureus DSM 20231 [2], first compound 5 µg/mL | – | 0.577 | – | – | – | –

fitness
Details | first compound 1.25 µg/mL | first compound 2.5 µg/mL | first compound 5 µg/mL
B. subtilis 168 [1], partner 0.25 µg/mL | 0.653 | 0.594 | –
B. subtilis 168 [1], partner 0.5 µg/mL | 0.521 | 0.439 | 0.35
S. aureus DSM 20231 [2], partner 0.25 µg/mL | 0.553 | 0.555 | 0.5
S. aureus DSM 20231 [2], partner 0.5 µg/mL | 0.316 | 0.497 | 0.442
S. aureus DSM 20231 [2], partner 1 µg/mL | 0.0451 | 0.053 | 0.0904

Details | Bliss interaction score
B. subtilis 168 [3] | 0.0421
S. aureus DSM 20231 [4] | 0.163
S. aureus Newman [5] | 0.123
S. pneumoniae D39V | 0.117

C[n+]1ccc(-c2cc[n+](C)cc2)cc1 [Paraquat] + COc1cc(Cc2cnc(N)nc2N)cc(OC)c1OC [Trimethoprim]
fitness, B. subtilis 168 [1], one replicate
Details | partner 0.1 µg/mL | partner 0.125 µg/mL | partner 0.2 µg/mL | partner 0.4 µg/mL | partner 1 µg/mL | partner 2 µg/mL
first compound 1.25 µg/mL | 0.944 | 0.737 | 0.744 | 0.526 | 0.309 | 0.332
first compound 2.5 µg/mL | 0.947 | 0.734 | 0.66 | 0.459 | 0.396 | 0.237
first compound 5 µg/mL | 0.873 | 0.626 | 0.642 | 0.358 | 0.068 | 0.0488

fitness
Details | first compound 1.25 µg/mL | first compound 2.5 µg/mL | first compound 5 µg/mL
B. subtilis 168 [1], partner 0.25 µg/mL | 0.683 | 0.604 | –
B. subtilis 168 [1], partner 0.5 µg/mL | 0.385 | – | 0.298
S. aureus DSM 20231 [2], partner 0.125 µg/mL | 0.715 | 0.741 | 0.68
S. aureus DSM 20231 [2], partner 0.25 µg/mL | 0.602 | 0.606 | 0.604
S. aureus DSM 20231 [2], partner 1 µg/mL | 0.0458 | 0.0312 | 0.0357

Details | Bliss interaction score
B. subtilis 168 [3] | -0.0973
S. aureus DSM 20231 [4] | 0.0513
S. aureus Newman [5] | -0.0902
S. pneumoniae D39V | 0.0991

CC[C@H]1OC(=O)[C@H](C)[C@@H](O[C@H]2C[C@@](C)(OC)[C@@H](O)[C@H](C)O2)[C@H](C)[C@@H](O[C@@H]2O[C@H](C)C[C@H](N(C)C)[C@H]2O)[C@](C)(O)C[C@@H](C)CN(C)[C@H](C)[C@@H](O)[C@]1(C)O [Azithromycin] + CCCCCCCCCC(=O)N[C@@H]1[C@H]([C@@H]([C@H](O[C@H]1OC2=C3C=C4C=C2OC5=C(C=C(C=C5)[C@H]([C@H]6C(=O)N[C@@H](C7=C(C(=CC(=C7)O)OC8[C@H]([C@H]([C@@H]([C@H](O8)CO)O)O)O)C9=C(C=CC(=C9)[C@H](C(=O)N6)NC(=O)[C@@H]4NC(=O)[C@@H]1C2=CC(=CC(=C2)OC2=C(C=CC(=C2)[C@H](C(=O)N[C@H](CC2=CC(=C(O3)C=C2)Cl)C(=O)N1)N)O)O)O)C(=O)O)O[C@H]1[C@@H]([C@H]([C@@H]([C@H](O1)CO)O)O)NC(=O)C)Cl)CO)O)O [Teicoplanin]
fitness
Details | partner 0.1562 µg/mL | partner 0.3125 µg/mL | partner 0.62 µg/mL | partner 0.625 µg/mL | partner 1.24 µg/mL | partner 2.48 µg/mL
S. aureus DSM 20231 [2], first compound 0.125 µg/mL, main component drawn | 0.915 | 0.924 | – | 0.991 | – | –
S. aureus DSM 20231 [2], first compound 0.25 µg/mL, main component drawn | 0.935 | 0.987 | – | ≥ 1 | – | –
S. aureus Newman [6], first compound 0.125 µg/mL, one replicate | – | – | 0.799 | – | 0.786 | 0.57
S. aureus Newman [6], first compound 0.25 µg/mL, one replicate | – | – | 0.998 | – | 0.812 | 0.55
S. aureus Newman [6], first compound 0.5 µg/mL, one replicate | – | – | 0.863 | – | 0.896 | 0.579

fitness, S. aureus Newman [6]
Details | partner 0.1562 µg/mL | partner 0.3125 µg/mL | partner 0.625 µg/mL
first compound 0.125 µg/mL | 0.899 | 0.928 | ≥ 1
first compound 0.25 µg/mL | 0.978 | 0.974 | 0.775

main component drawn
Details | Bliss interaction score
B. subtilis 168 [3] | -0.0653
S. aureus DSM 20231 [4] | 0.104
S. aureus Newman [5] | 0.169
S. pneumoniae D39V | 0.0706

CC[C@H]1OC(=O)[C@H](C)[C@@H](O[C@H]2C[C@@](C)(OC)[C@@H](O)[C@H](C)O2)[C@H](C)[C@@H](O[C@@H]2O[C@H](C)C[C@H](N(C)C)[C@H]2O)[C@](C)(O)C[C@@H](C)CN(C)[C@H](C)[C@@H](O)[C@]1(C)O [Azithromycin] + CCC[C@@H]1C[C@@H](C(=O)N[C@@H]([C@H]2O[C@H](SC)[C@H](O)[C@@H](O)[C@H]2O)[C@@H](C)O)N(C)C1 [Lincomycin]
fitness
Details | partner 0.1 µg/mL | partner 0.2 µg/mL | partner 0.4 µg/mL | partner 0.8 µg/mL | partner 1.6 µg/mL
B. subtilis 168 [1], first compound 0.25 µg/mL | 0.777 | 0.78 | 0.833 | 0.865 | 0.887
B. subtilis 168 [1], first compound 0.5 µg/mL | 0.82 | 0.817 | 0.876 | 0.797 | 0.77
B. subtilis 168 [1], first compound 1 µg/mL | 0.714 | 0.734 | – | – | –
S. aureus DSM 20231 [2], first compound 0.125 µg/mL | 0.873 | 0.754 | – | – | –
S. aureus DSM 20231 [2], first compound 0.25 µg/mL | 0.89 | 0.583 | – | – | –
S. aureus DSM 20231 [2], first compound 0.5 µg/mL | 0.386 | 0.147 | 0.106 | – | –

B. subtilis 168 [1], first compound 2 µg/mL, one replicate
Details | fitness
partner 0.1 µg/mL | 0.401
partner 0.2 µg/mL | 0.24
partner 0.4 µg/mL | 0.202

Details | Bliss interaction score
B. subtilis 168 [3] | 0.098
S. aureus DSM 20231 [4] | -0.0854
S. aureus Newman [5] | -0.105
S. pneumoniae D39V | 0.0603

C[n+]1ccc(-c2cc[n+](C)cc2)cc1 [Paraquat] + CCCCCCCCCC(=O)N[C@@H]1[C@H]([C@@H]([C@H](O[C@H]1OC2=C3C=C4C=C2OC5=C(C=C(C=C5)[C@H]([C@H]6C(=O)N[C@@H](C7=C(C(=CC(=C7)O)OC8[C@H]([C@H]([C@@H]([C@H](O8)CO)O)O)O)C9=C(C=CC(=C9)[C@H](C(=O)N6)NC(=O)[C@@H]4NC(=O)[C@@H]1C2=CC(=CC(=C2)OC2=C(C=CC(=C2)[C@H](C(=O)N[C@H](CC2=CC(=C(O3)C=C2)Cl)C(=O)N1)N)O)O)O)C(=O)O)O[C@H]1[C@@H]([C@H]([C@@H]([C@H](O1)CO)O)O)NC(=O)C)Cl)CO)O)O [Teicoplanin]
fitness
Details | first compound 1.25 µg/mL | first compound 2.5 µg/mL | first compound 5 µg/mL
S. aureus DSM 20231 [2], partner 0.1562 µg/mL, main component drawn | 0.957 | 0.954 | 0.967
S. aureus DSM 20231 [2], partner 0.3125 µg/mL, main component drawn | 0.99 | ≥ 1 | ≥ 1
S. aureus DSM 20231 [2], partner 0.625 µg/mL, main component drawn | ≥ 1 | ≥ 1 | ≥ 1
S. aureus Newman [6], partner 0.62 µg/mL, one replicate | 0.795 | 0.782 | 0.775
S. aureus Newman [6], partner 1.24 µg/mL, one replicate | 0.737 | 0.745 | 0.761
S. aureus Newman [6], partner 2.48 µg/mL, one replicate | 0.336 | 0.402 | 0.117

fitness, S. aureus Newman [6]
Details | first compound 1.25 µg/mL | first compound 2.5 µg/mL | first compound 5 µg/mL
partner 0.1562 µg/mL | ≥ 1 | ≥ 1 | ≥ 1
partner 0.3125 µg/mL | ≥ 1 | 0.98 | 0.962
partner 0.625 µg/mL | 0.912 | 0.87 | 0.846

main component drawn
Details | Bliss interaction score
B. subtilis 168 [3] | -0.044
S. aureus DSM 20231 [4] | 0.0665
S. aureus Newman [5] | 0.0904
S. pneumoniae D39V | 0.0634
